From PMC10905675, “INX-315, a Selective CDK2 Inhibitor, Induces Cell Cycle Arrest and Senescence in Solid Tumors” (Cancer Discovery, 2023)

Tests used:
Details in all cases: INX-0315 at 100nM
[1] = target: T1, ALK L1196M (Homo sapiens, UniProt Q9UM73, L1196M); assay: SelectScreen LanthaScreen Binding
T1 construct: purchased Thermo Fisher Scientific SelectScreen (plus Nanosyn / Reaction Biology for CDK/cyclin lines)
Excerpt: (§1) INX-315 was first evaluated in the SelectScreen Biochemical Kinase Profiling at Thermo Fisher Scientific (Madison, WI). The primary screen consisted of INX-315 dosed at a single concentration of 100 nmol/L in 1% DMSO across each platform within the SelectScreen array of assays, LanthaScreen Eu Kinase Binding Assay; AdaptaScreen; and Z'LyteScreen using preestablished conditions at Thermo Fisher Scientific as shown in Supplementary Table S2. […] The follow-up screen consisted of 10-point dose–response curves for INX-315 from 1 µmol/L to 0.0495 nmol/L.

[2] = target: T2, AMPK (A2/B2/G2) (Homo sapiens, UniProt P54646); assay: SelectScreen LanthaScreen Binding
T2 construct: purchased Thermo Fisher Scientific SelectScreen (plus Nanosyn / Reaction Biology for CDK/cyclin lines)
Excerpt: as §1

[3] = target: T3, AXL R499C (Homo sapiens, UniProt P30530, R499C); assay: SelectScreen LanthaScreen Binding
T3 construct: purchased Thermo Fisher Scientific SelectScreen (plus Nanosyn / Reaction Biology for CDK/cyclin lines)
Excerpt: as §1

[4] = target: T4, CDK2/cyclin E1 (Homo sapiens, UniProt P24941); assay: SelectScreen LanthaScreen Binding
T4 construct: purchased Millipore 14-475
Excerpt: as §1

[5] = target: T5, CDK2/cyclin O (Homo sapiens, UniProt P24941); assay: SelectScreen LanthaScreen Binding
T5 construct: purchased Thermo Fisher Scientific SelectScreen (plus Nanosyn / Reaction Biology for CDK/cyclin lines)
Excerpt: as §1

[6] = target: T6, CDK9/cyclin K (Homo sapiens, UniProt P50750); assay: SelectScreen LanthaScreen Binding
T6 construct: purchased Thermo Fisher Scientific SelectScreen (plus Nanosyn / Reaction Biology for CDK/cyclin lines)
Excerpt: as §1

[7] = target: T7, DDR2 T654M (Homo sapiens, UniProt Q16832, T654M); assay: SelectScreen LanthaScreen Binding
T7 construct: purchased Thermo Fisher Scientific SelectScreen (plus Nanosyn / Reaction Biology for CDK/cyclin lines)
Excerpt: as §1

[8] = target: T8, ERN2 (Homo sapiens, UniProt Q76MJ5); assay: SelectScreen LanthaScreen Binding
T8 construct: purchased Thermo Fisher Scientific SelectScreen (plus Nanosyn / Reaction Biology for CDK/cyclin lines)
Excerpt: as §1

[9] = target: T9, FGFR3 K650M (Homo sapiens, UniProt P22607, K650M); assay: SelectScreen LanthaScreen Binding
T9 construct: purchased Thermo Fisher Scientific SelectScreen (plus Nanosyn / Reaction Biology for CDK/cyclin lines)
Excerpt: as §1

[10] = target: T10, KIT A829P (Homo sapiens, UniProt P10721, A829P); assay: SelectScreen LanthaScreen Binding
T10 construct: purchased Thermo Fisher Scientific SelectScreen (plus Nanosyn / Reaction Biology for CDK/cyclin lines)
Excerpt: as §1

[11] = target: T11, LIMK1 (Homo sapiens, UniProt P53667); assay: SelectScreen LanthaScreen Binding
T11 construct: purchased Thermo Fisher Scientific SelectScreen (plus Nanosyn / Reaction Biology for CDK/cyclin lines)
Excerpt: as §1

[12] = target: T12, MAP2K1 (MEK1) (Homo sapiens, UniProt Q02750); assay: SelectScreen LanthaScreen Binding
T12 construct: purchased Thermo Fisher Scientific SelectScreen (plus Nanosyn / Reaction Biology for CDK/cyclin lines)
Excerpt: as §1

[13] = target: T13, MAP2K1 (MEK1) S218D S222D (Homo sapiens, UniProt Q02750, S218D/S222D); assay: SelectScreen LanthaScreen Binding
T13 construct: purchased Thermo Fisher Scientific SelectScreen (plus Nanosyn / Reaction Biology for CDK/cyclin lines)
Excerpt: as §1

[14] = target: T14, MASTL (Homo sapiens, UniProt Q96GX5); assay: SelectScreen LanthaScreen Binding
T14 construct: purchased Thermo Fisher Scientific SelectScreen (plus Nanosyn / Reaction Biology for CDK/cyclin lines)
Excerpt: as §1

[15] = target: T15, MYO3B (MYO3 beta) (Homo sapiens, UniProt Q8WXR4); assay: SelectScreen LanthaScreen Binding
T15 construct: purchased Thermo Fisher Scientific SelectScreen (plus Nanosyn / Reaction Biology for CDK/cyclin lines)
Excerpt: as §1

[16] = target: T16, NEK8 (Homo sapiens, UniProt Q86SG6); assay: SelectScreen LanthaScreen Binding
T16 construct: purchased Thermo Fisher Scientific SelectScreen (plus Nanosyn / Reaction Biology for CDK/cyclin lines)
Excerpt: as §1

[17] = target: T17, NLK (Homo sapiens, UniProt Q9UBE8); assay: SelectScreen LanthaScreen Binding
T17 construct: purchased Thermo Fisher Scientific SelectScreen (plus Nanosyn / Reaction Biology for CDK/cyclin lines)
Excerpt: as §1

[18] = target: T18, PLK4 (Homo sapiens, UniProt O00444); assay: SelectScreen LanthaScreen Binding
T18 construct: purchased Thermo Fisher Scientific SelectScreen (plus Nanosyn / Reaction Biology for CDK/cyclin lines)
Excerpt: as §1

[19] = target: T19, RIPK2 (Homo sapiens, UniProt O43353); assay: SelectScreen LanthaScreen Binding
T19 construct: purchased Thermo Fisher Scientific SelectScreen (plus Nanosyn / Reaction Biology for CDK/cyclin lines)
Excerpt: as §1

[20] = target: T20, STK17B (DRAK2) (Homo sapiens, UniProt O94768); assay: SelectScreen LanthaScreen Binding
T20 construct: purchased Thermo Fisher Scientific SelectScreen (plus Nanosyn / Reaction Biology for CDK/cyclin lines)
Excerpt: as §1

[21] = target: T21, TEK (TIE2) Y1108F (Homo sapiens, UniProt Q02763, Y1108F); assay: SelectScreen LanthaScreen Binding
T21 construct: purchased Thermo Fisher Scientific SelectScreen (plus Nanosyn / Reaction Biology for CDK/cyclin lines)
Excerpt: as §1

[22] = target: T22, WNK2 (Homo sapiens, UniProt Q9Y3S1); assay: SelectScreen LanthaScreen Binding
T22 construct: purchased Thermo Fisher Scientific SelectScreen (plus Nanosyn / Reaction Biology for CDK/cyclin lines)
Excerpt: as §1

[23] = target: T23, WNK3 (Homo sapiens, UniProt Q9BYP7); assay: SelectScreen LanthaScreen Binding
T23 construct: purchased Thermo Fisher Scientific SelectScreen (plus Nanosyn / Reaction Biology for CDK/cyclin lines)
Excerpt: as §1

[24] = target: T24, ZAK (Homo sapiens, UniProt Q9NYL2); assay: SelectScreen LanthaScreen Binding
T24 construct: purchased Thermo Fisher Scientific SelectScreen (plus Nanosyn / Reaction Biology for CDK/cyclin lines)
Excerpt: as §1

[25] = target: T25, CDK4/cyclin D1 (Homo sapiens, UniProt P11802); assay: SelectScreen Adapta; type: biochemical
T25 construct: purchased ThermoFisher PV4400
Excerpt: as §1

[26] = target: T26, CDK4/cyclin D3 (Homo sapiens, UniProt P11802); assay: SelectScreen Adapta; type: biochemical
T26 construct: purchased Thermo Fisher Scientific SelectScreen (plus Nanosyn / Reaction Biology for CDK/cyclin lines)
Excerpt: as §1

[27] = target: T27, LRRK2 G2019S (Homo sapiens, UniProt Q5S007, G2019S); assay: SelectScreen Adapta; type: biochemical
T27 construct: purchased Thermo Fisher Scientific SelectScreen (plus Nanosyn / Reaction Biology for CDK/cyclin lines)
Excerpt: as §1

[28] = target: T28, LRRK2 I2020T (Homo sapiens, UniProt Q5S007, I2020T); assay: SelectScreen Adapta; type: biochemical
T28 construct: purchased Thermo Fisher Scientific SelectScreen (plus Nanosyn / Reaction Biology for CDK/cyclin lines)
Excerpt: as §1

[29] = target: T29, NUAK1 (ARK5) (Homo sapiens, UniProt O60285); assay: SelectScreen Adapta; type: biochemical
T29 construct: purchased Thermo Fisher Scientific SelectScreen (plus Nanosyn / Reaction Biology for CDK/cyclin lines)
Excerpt: as §1

[30] = target: T30, PI4K2A (PI4K2 alpha) (Homo sapiens, UniProt Q9BTU6); assay: SelectScreen Adapta; type: biochemical
T30 construct: purchased Thermo Fisher Scientific SelectScreen (plus Nanosyn / Reaction Biology for CDK/cyclin lines)
Excerpt: as §1

[31] = target: T31, PIK3CA E545K/PIK3R1 (p110 alpha E545K/p85 alpha) (Homo sapiens, UniProt P42336, E545K); assay: SelectScreen Adapta; type: biochemical
T31 construct: purchased Thermo Fisher Scientific SelectScreen (plus Nanosyn / Reaction Biology for CDK/cyclin lines)
Excerpt: as §1

[32] = target: T32, PIK3CA/PIK3R3 (p110 alpha/p55 gamma) (Homo sapiens, UniProt P42336); assay: SelectScreen Adapta; type: biochemical
T32 construct: purchased Thermo Fisher Scientific SelectScreen (plus Nanosyn / Reaction Biology for CDK/cyclin lines)
Excerpt: as §1

[33] = target: T33, PIK3CB/PIK3R1 (p110 beta/p85 alpha) (Homo sapiens, UniProt P42338); assay: SelectScreen Adapta; type: biochemical
T33 construct: purchased Thermo Fisher Scientific SelectScreen (plus Nanosyn / Reaction Biology for CDK/cyclin lines)
Excerpt: as §1

[34] = target: T34, PIP4K2A (Homo sapiens, UniProt P48426); assay: SelectScreen Adapta; type: biochemical
T34 construct: purchased Thermo Fisher Scientific SelectScreen (plus Nanosyn / Reaction Biology for CDK/cyclin lines)
Excerpt: as §1

[35] = target: T35, PIP5K1B (Homo sapiens, UniProt O14986); assay: SelectScreen Adapta; type: biochemical
T35 construct: purchased Thermo Fisher Scientific SelectScreen (plus Nanosyn / Reaction Biology for CDK/cyclin lines)
Excerpt: as §1

[36] = target: T36, PIP5K1C (Homo sapiens, UniProt O60331); assay: SelectScreen Adapta; type: biochemical
T36 construct: purchased Thermo Fisher Scientific SelectScreen (plus Nanosyn / Reaction Biology for CDK/cyclin lines)
Excerpt: as §1

T1 sequence (Q9UM73 19-1620 L1196M): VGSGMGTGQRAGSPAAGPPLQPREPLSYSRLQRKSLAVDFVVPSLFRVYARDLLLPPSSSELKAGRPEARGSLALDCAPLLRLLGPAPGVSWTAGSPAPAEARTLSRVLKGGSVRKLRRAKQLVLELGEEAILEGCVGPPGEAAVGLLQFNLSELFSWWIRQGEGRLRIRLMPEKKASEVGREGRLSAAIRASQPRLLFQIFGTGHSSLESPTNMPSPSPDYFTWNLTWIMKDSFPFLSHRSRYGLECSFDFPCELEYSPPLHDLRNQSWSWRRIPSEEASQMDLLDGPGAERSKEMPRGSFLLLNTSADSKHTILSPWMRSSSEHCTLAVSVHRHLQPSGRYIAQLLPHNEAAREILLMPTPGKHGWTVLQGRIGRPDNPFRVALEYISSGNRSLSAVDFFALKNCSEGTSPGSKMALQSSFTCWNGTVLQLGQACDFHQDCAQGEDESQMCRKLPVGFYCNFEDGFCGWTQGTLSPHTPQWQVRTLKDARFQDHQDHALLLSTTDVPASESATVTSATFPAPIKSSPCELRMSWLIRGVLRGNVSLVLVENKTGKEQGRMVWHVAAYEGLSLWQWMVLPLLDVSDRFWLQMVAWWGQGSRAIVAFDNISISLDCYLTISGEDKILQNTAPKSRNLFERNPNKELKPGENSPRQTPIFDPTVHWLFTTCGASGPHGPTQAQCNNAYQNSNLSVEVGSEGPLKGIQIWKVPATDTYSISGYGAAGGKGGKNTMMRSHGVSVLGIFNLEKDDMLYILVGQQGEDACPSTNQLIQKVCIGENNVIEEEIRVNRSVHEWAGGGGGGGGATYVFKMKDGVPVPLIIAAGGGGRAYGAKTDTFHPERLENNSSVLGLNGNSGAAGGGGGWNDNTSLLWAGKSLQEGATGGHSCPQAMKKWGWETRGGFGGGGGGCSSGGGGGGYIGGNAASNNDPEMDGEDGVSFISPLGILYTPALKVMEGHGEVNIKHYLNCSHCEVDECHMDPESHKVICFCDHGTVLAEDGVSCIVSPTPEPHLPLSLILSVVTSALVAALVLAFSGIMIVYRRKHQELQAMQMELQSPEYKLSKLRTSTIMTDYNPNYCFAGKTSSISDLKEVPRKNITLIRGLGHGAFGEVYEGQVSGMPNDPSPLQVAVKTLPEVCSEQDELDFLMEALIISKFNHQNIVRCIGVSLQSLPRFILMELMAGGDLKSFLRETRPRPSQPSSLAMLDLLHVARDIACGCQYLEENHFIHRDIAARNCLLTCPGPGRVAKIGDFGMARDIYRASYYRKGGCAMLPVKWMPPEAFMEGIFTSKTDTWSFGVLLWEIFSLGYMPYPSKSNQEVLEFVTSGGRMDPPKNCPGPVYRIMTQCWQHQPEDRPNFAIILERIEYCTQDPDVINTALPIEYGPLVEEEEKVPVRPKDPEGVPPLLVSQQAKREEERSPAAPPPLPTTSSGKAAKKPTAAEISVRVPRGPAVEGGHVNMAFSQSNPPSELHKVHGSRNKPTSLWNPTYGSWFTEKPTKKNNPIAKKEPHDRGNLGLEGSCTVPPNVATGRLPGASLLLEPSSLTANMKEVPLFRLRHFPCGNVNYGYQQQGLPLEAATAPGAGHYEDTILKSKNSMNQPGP
T11 sequence (P53667 whole entry): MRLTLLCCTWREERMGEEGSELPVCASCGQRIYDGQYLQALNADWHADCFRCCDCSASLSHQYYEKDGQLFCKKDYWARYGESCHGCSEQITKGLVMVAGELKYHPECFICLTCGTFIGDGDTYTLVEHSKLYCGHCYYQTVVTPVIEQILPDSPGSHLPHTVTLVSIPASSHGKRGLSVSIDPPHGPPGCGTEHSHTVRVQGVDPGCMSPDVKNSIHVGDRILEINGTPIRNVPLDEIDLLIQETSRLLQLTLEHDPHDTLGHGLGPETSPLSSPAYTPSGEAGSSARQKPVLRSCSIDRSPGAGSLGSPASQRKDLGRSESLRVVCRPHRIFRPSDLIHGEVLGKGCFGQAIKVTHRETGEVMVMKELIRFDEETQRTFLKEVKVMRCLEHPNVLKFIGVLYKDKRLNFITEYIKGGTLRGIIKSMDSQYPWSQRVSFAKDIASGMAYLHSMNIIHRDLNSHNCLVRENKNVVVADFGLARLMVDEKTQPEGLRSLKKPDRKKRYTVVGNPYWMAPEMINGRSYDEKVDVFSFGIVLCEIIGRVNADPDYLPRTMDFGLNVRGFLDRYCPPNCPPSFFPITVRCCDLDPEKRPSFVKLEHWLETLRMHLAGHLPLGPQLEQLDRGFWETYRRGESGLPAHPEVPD
T24 sequence (Q9NYL2 whole entry): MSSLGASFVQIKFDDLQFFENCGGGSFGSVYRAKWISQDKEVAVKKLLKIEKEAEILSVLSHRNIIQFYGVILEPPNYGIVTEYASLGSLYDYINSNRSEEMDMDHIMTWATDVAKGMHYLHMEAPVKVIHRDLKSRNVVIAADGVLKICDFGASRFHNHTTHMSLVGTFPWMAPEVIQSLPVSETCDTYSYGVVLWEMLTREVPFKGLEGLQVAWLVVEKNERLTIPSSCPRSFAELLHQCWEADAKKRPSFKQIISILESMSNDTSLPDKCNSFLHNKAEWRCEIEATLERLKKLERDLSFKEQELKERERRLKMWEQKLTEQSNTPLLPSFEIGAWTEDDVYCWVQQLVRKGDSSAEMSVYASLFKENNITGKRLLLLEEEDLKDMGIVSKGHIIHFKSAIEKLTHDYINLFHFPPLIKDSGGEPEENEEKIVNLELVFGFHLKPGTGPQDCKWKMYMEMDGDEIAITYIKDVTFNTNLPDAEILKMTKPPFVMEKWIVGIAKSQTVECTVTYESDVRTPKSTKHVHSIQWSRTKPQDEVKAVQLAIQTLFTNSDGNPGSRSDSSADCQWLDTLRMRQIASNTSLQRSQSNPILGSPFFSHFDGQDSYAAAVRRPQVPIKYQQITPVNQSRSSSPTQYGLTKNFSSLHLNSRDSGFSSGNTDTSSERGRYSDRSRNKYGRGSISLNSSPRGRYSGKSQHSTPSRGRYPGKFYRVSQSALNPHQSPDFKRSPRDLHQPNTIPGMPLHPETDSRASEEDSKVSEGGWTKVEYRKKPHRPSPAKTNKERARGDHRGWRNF
T35 sequence (O14986 whole entry): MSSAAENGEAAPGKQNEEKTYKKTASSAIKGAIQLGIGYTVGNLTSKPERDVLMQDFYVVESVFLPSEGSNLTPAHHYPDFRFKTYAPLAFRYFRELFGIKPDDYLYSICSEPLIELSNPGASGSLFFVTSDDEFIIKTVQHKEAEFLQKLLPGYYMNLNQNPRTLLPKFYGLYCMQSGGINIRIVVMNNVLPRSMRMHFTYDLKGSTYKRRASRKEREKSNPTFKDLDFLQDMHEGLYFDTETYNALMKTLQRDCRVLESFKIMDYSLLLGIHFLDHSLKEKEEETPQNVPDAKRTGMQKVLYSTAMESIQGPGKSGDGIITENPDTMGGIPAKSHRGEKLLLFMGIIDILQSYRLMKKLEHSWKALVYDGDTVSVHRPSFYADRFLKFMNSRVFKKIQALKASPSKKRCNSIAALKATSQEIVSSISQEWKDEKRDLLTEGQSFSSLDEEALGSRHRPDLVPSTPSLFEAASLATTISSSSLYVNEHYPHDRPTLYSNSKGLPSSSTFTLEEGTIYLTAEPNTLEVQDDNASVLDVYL
T30 sequence (Q9BTU6 whole entry): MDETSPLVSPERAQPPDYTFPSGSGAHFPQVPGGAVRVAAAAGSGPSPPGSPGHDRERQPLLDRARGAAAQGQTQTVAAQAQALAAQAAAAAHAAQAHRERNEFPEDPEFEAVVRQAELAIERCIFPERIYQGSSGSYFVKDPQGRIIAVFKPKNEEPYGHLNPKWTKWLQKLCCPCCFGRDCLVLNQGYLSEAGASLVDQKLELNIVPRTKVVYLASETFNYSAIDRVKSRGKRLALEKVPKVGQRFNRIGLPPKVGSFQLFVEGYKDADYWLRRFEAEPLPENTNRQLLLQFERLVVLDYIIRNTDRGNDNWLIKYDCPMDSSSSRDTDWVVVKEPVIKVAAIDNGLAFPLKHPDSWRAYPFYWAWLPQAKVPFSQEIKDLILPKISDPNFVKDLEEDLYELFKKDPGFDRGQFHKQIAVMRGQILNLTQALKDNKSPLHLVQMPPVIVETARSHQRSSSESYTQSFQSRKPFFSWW
T16 sequence (Q86SG6 whole entry): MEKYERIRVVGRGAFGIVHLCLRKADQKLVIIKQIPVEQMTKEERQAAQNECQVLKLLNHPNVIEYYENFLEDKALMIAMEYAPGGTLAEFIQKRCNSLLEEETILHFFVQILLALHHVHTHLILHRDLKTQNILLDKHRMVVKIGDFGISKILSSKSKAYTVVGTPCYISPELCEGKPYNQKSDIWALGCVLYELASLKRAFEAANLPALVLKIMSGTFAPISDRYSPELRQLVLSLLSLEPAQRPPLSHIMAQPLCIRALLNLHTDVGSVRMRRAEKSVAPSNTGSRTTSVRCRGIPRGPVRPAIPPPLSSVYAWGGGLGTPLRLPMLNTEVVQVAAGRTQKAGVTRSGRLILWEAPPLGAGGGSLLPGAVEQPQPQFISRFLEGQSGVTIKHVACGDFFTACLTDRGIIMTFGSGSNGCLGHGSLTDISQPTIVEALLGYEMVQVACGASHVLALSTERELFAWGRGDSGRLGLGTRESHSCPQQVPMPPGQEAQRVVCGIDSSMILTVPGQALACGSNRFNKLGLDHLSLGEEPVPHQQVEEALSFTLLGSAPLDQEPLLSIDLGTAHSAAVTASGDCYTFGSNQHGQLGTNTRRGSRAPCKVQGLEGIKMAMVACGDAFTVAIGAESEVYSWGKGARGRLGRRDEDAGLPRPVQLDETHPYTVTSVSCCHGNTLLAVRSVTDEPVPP

NS(=O)(=O)c1ccc(Nc2ncc3cc4n(c3n2)C2(CCCCC2)C(=O)NN4)cc1 [INX-315]
inhibition at 0.1 µM [1]: 7%
inhibition at 0.1 µM [2]: 11%
inhibition at 0.1 µM [3]: 1%
inhibition at 0.1 µM [4]: 98%
inhibition at 0.1 µM [5]: 98%
inhibition at 0.1 µM [6]: 38%
inhibition at 0.1 µM [7]: 26%
inhibition at 0.1 µM [8]: 2%
inhibition at 0.1 µM [9]: 14%
inhibition at 0.1 µM [10]: 28%
inhibition at 0.1 µM [11]: 34%
inhibition at 0.1 µM [12]: 5%
inhibition at 0.1 µM [13]: 1%
inhibition at 0.1 µM [14]: 0%
inhibition at 0.1 µM [15]: 0%
inhibition at 0.1 µM [16]: 0%
inhibition at 0.1 µM [17]: 0%
inhibition at 0.1 µM [18]: 29%
inhibition at 0.1 µM [19]: -1%
inhibition at 0.1 µM [20]: 4%
inhibition at 0.1 µM [21]: 2%
inhibition at 0.1 µM [22]: -9%
inhibition at 0.1 µM [23]: 2%
inhibition at 0.1 µM [24]: 3%
inhibition at 0.1 µM [25]: 24%
inhibition at 0.1 µM [26]: 22%
inhibition at 0.1 µM [27]: 34%
inhibition at 0.1 µM [28]: 28%
inhibition at 0.1 µM [29]: 68%
inhibition at 0.1 µM [30]: 0%
inhibition at 0.1 µM [31]: 0%
inhibition at 0.1 µM [32]: -2%
inhibition at 0.1 µM [33]: -17%
inhibition at 0.1 µM [34]: 7%
inhibition at 0.1 µM [35]: 38%
inhibition at 0.1 µM [36]: 4%
